Test results: patent US20160097044A1, “Antimicrobial Enzyme Fusions Reduce Resistance and Kill Intracellular Staphylococcus aureus” (The United States of America, as Represented by the …, priority 2014, published 2016)

What was measured:
[1] = tested on: MRSA; conditions: systemically delivered, mouse models; cited from earlier work
[2] = tested on: MRSA strain NRS382 biofilms; assay: Dynamic biofilm model, Live/Dead viability; format: cell-based, S. aureus; conditions: Staphylococcus aureus, 2 h, read-out: viability in dynamic biofilms (percentage of live cells; controls 100%)
Experimental: Biofilms were pre-stained with the Live/Dead stain (see methods) and viewed with 20× magnification. FIG. 9b depicts bacterial viability. Analysis of bacterial viability in NRS382 dynamic biofilms is based on mean fluorescent intensities of the Live/Dead viability stain when exposed to 100 μg/ml of PGH K-L (1.4 μM), K-L-PTD1 (1.4 μM), or vancomycin (69 μM) at a flow rate of 0.5 ml/min for 2 h and compared to PBS. Error bars represent SEM (N=3) of three independent 100×100 pixel squares identically located in each biofilm z-stack. […]
In order to visualize the viability of S. aureus NRS382 biofilms, each chamber of the flow cell was fluorescently labeled by the Live/Dead BacLight™ staining kit (Invitrogen, Carlsbad, Calif.) for one hour. […] To quantify the viability of S. aureus NRS382 biofilms at various time points in the presence of different treatments, one image at the center of z-series (i.e. center of the biofilm) for each time point was selected to represent each treatment group. Three squares representing 100×100 pixels were drawn in each image and the mean intensity of live (green channel) and dead (red channel) cell populations were calculated by Zen 2010 digital imaging software (Carl Zeiss). […] The percentage of live cells remaining in biofilms after various treatments was statistically analyzed by an unpaired t-test.

SMILES	protection from MRSA bacteremia / survival at 48 hours post infection [1]	viability at 100 µg/mL [2]
Cc1onc(-c2ccccc2)c1C(=O)N[C@@H]1C(=O)N2[C@@H]1SC(C)(C)[C@@H]2C(=O)O [oxacillin]	20%	–
CN[C@H](CC(C)C)C(=O)N[C@H]1C(=O)N[C@@H](CC(N)=O)C(=O)N[C@H]2C(=O)N[C@H]3C(=O)N[C@H](C(=O)N[C@H](C(=O)O)c4cc(O)cc(O)c4-c4cc3ccc4O)[C@H](O)c3ccc(c(Cl)c3)Oc3cc2cc(c3O[C@@H]2O[C@H](CO)[C@@H](O)[C@H](O)[C@H]2O[C@H]2C[C@](C)(N)[C@H](O)[C@H](C)O2)Oc2ccc(cc2Cl)[C@H]1O [vancomycin]	–	40%
